Experimental data: PubChem BioAssay AID588644 (The Scripps Research Institute Molecular Screening Center, 2011)
Calls of active or inactive are those of the source.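 Rule for the calls: active = rise or fall in EGR1 growth-response protein of at least 30% versus solvent-only treated cells; inactive = EGR1 protein change under 30% either way.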

Molecular target: Early growth response protein 1 (Homo sapiens) (UniProt P18146)
Experiment: lowering of EGR1 protein in HCT116 – cell-based, HCT116 colorectal carcinoma, chemiluminescent western blot, counter-screen for KLF5 inhibitor project, late-stage follow-up (AID 588644)
Details: HCT116 EGR1 protein level, 24 h, at 10 µM, stronger effect = higher value

| Structure (SMILES) | inhibition |
| --- | --- |
| CN(C(=O)COC(=O)/C=C/c1cccc([N+](=O)[O-])c1)C1CCS(=O)(=O)C1 (stereo not drawn) | 28.4% (inactive) |
| CN(C(=O)CNC(=O)/C=C/c1cccc(Cl)c1)C1CCS(=O)(=O)C1 (stereo not drawn) | 18.6% (inactive) |
| CN(C(=O)CNC(=O)/C=C/c1cccc(Cl)c1)C1CCS(=O)(=O)CC1 | -3.53% (inactive) |
